Reference: patent US4757083A, “Novel pyrrolidinylamide ester derivatives having anti-prolyl endopeptidase activity and synthesis and use thereof” (Suntory Limited, priority 1985, dated 1988)

molecular target: prolyl endopeptidase (Elizabethkingia meningoseptica, UniProt P27028); assay: Measurement of anti-prolyl endopeptidase activity (Z-glycyl-proline-β-naphthylamide substrate); assay type: biochemical; conditions: amount for 50% inhibition, pH 7.0, 35° C., 10 minutes, absorbance at 410 nm
Description: The method of Yoshimoto and Tsuru [T. Yoshimoto and D. Tsuru, Agric. Biol. Chem., 42, 2417 (1978)] was used to measured the anti-prolyl endopeptidase activities of several compounds of the present invention. A mixture of 0.0025M Z-glycyl-proline-β-naphthylamide (0.25 ml), 0.1M phosphate buffer (pH, 7.0; 0.99 ml) and a solution of a particular anti-prolyl endopeptidase compound (0.01 ml) was incubated in a test tube at 37° C. for 3 minutes. Thereafter, 0.1 ml of a solution of prolyl endopeptidase (0.2 U/ml) was added and the mixture was incubated at 35° C. for 10 minutes. After the reaction, 2.0 ml of Triton X-100 in 1M acetate buffer (pH, 4.0) was added to the reaction mixture so that the final concentration of the surfactant was 10%. The mixture was left at room temperature for 15 minutes and the absorbance (a) at 410 nm was measured.
A sample of a blind test was prepared by using the buffer instead of the anti-prolyl endopeptidase compound and its absorbance (b) was also measured. The percent inhibition of prolyl endopeptidase was calculated by the formula: […]
and the amount of a specific compound needed to achieve 50% inhibition (IC50) was determined.

Sequence of prolyl endopeptidase (P27028 21-705): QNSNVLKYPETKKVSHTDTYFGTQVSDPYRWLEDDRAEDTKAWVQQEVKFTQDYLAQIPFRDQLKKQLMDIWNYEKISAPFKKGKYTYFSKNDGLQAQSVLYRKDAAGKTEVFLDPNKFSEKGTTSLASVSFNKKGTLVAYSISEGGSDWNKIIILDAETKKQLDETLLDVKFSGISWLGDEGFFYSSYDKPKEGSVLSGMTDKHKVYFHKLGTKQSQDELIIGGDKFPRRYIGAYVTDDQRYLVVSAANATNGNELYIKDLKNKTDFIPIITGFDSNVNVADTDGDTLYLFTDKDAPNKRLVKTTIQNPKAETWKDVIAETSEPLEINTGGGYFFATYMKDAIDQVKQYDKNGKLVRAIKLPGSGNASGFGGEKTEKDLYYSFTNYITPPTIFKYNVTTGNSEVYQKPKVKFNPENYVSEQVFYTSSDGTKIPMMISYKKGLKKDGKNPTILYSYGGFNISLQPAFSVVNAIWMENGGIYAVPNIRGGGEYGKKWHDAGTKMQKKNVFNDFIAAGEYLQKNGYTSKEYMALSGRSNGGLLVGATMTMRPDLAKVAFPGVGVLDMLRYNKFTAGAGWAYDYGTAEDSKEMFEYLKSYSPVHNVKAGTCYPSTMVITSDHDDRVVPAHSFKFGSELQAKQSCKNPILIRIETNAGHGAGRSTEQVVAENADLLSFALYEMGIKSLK

Row | SMILES | IC50 [μg/test tube]
1 | CC(C)CC(OC(=O)CCCc1ccccc1)C(=O)N1CCCC1 (stereo not drawn) [Example 1, N-[2-(γ-phenyl)butyryloxy-4-methylvaleryl]pyrrolidine] | 0.70
2 | CC(C)C(OC(=O)CCCc1ccccc1)C(=O)N1CCCC1 (stereo not drawn) [Example 2, N-[2-(γ-phenyl)butyryloxy-3-methylbutyryl]pyrrolidine] | 0.90
3 | CCCCCCC(OC(=O)CCCc1ccccc1)C(=O)N1CCCC1 (stereo not drawn) [Example 3, N-[2-(γ-phenyl)butyryloxy-n-capryloyl]pyrrolidine] | 4.0
